Results: patent US9340590B2 (priority 2011, dated 2016)
Like-named read-outs stand apart in the source and are kept apart here. Positions of bridges follow the written chain, without caps; N, C: chain ends. Non-standard residues stand in square brackets, D forms with d. Residues, ends and D or L forms follow the SMILES beside them. Phe(2-Cl) = N[C@@H](Cc1ccccc1Cl)C(=O)O

Legend:
Assay in all cases: cell-based
[1] = molecular target: hNav1.7 (Homo sapiens, UniProt Q15858); type: cell-based; details: IonWorks Quattro
[2] = molecular target: hNav1.3 (Homo sapiens, UniProt Q9NY46); details: IonWorks Quattro, read-out: IWQ Use Nav1.3
[3] = molecular target: hNav1.5 (Homo sapiens, UniProt Q14524)
[4] = use-dependent block, hNav1.7, read-out: IWQ Use Nav1.7
[5] = IonWorks Quattro, use-dependent block, hNav1.5, read-out: IWQ Use Nav1.5
[6] = use-dependent protocol, hNav1.7, read-out: IWQ Use Nav1.7
[7] = use-dependent protocol, hNav1.3
[8] = IonWorks Quattro, use-dependent protocol, hNav1.5, read-out: IWQ Use Nav1.5

hNav1.5, sequence (Q14524 whole entry, looked up): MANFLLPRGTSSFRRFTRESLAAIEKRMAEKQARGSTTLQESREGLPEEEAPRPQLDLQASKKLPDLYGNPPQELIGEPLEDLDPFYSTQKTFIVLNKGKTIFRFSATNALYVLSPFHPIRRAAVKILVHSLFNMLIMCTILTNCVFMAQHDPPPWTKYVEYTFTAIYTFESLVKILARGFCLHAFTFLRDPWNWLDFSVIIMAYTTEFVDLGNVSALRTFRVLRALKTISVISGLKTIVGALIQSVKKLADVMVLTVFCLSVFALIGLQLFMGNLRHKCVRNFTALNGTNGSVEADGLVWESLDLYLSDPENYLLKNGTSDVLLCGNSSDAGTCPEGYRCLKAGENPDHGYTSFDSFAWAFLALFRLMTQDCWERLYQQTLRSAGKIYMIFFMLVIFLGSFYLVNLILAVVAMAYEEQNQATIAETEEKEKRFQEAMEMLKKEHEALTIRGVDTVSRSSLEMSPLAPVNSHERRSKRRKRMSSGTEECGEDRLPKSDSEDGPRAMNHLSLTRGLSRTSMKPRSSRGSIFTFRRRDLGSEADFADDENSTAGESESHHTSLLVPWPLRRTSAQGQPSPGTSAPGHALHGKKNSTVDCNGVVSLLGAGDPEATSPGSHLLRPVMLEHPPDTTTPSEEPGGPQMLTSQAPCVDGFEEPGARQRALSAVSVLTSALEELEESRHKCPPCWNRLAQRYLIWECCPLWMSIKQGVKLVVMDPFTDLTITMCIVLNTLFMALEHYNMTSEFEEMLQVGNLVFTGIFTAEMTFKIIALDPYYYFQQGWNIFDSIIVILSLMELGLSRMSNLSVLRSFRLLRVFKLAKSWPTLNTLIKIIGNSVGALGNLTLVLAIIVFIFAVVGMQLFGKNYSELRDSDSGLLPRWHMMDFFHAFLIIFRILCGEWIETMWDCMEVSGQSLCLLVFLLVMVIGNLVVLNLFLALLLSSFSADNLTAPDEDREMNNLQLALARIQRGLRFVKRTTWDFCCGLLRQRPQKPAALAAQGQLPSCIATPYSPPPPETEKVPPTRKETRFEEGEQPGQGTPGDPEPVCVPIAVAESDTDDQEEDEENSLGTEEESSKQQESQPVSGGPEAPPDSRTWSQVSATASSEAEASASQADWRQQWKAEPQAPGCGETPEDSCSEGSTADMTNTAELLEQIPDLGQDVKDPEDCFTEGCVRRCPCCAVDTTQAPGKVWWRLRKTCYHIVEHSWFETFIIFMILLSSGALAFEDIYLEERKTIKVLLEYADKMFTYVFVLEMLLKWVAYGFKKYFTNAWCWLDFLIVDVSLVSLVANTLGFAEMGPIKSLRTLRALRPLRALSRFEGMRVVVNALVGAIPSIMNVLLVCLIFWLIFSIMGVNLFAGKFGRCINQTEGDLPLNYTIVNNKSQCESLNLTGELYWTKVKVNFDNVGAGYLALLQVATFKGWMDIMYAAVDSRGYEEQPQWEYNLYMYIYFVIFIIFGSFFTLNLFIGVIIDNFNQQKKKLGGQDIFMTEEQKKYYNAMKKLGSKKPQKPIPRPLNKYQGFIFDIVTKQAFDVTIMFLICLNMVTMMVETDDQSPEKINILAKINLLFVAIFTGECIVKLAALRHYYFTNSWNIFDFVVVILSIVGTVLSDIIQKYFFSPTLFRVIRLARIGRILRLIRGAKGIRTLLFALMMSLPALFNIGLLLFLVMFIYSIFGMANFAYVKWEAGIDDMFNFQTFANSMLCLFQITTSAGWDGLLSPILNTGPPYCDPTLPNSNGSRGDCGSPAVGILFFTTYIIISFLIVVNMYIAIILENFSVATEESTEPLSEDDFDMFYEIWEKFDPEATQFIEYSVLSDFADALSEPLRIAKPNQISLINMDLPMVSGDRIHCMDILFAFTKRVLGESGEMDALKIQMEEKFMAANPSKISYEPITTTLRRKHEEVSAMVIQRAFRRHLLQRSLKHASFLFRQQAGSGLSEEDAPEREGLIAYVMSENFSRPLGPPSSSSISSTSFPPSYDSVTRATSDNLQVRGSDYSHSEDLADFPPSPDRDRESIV
hNav1.3, sequence (Q9NY46 whole entry, looked up): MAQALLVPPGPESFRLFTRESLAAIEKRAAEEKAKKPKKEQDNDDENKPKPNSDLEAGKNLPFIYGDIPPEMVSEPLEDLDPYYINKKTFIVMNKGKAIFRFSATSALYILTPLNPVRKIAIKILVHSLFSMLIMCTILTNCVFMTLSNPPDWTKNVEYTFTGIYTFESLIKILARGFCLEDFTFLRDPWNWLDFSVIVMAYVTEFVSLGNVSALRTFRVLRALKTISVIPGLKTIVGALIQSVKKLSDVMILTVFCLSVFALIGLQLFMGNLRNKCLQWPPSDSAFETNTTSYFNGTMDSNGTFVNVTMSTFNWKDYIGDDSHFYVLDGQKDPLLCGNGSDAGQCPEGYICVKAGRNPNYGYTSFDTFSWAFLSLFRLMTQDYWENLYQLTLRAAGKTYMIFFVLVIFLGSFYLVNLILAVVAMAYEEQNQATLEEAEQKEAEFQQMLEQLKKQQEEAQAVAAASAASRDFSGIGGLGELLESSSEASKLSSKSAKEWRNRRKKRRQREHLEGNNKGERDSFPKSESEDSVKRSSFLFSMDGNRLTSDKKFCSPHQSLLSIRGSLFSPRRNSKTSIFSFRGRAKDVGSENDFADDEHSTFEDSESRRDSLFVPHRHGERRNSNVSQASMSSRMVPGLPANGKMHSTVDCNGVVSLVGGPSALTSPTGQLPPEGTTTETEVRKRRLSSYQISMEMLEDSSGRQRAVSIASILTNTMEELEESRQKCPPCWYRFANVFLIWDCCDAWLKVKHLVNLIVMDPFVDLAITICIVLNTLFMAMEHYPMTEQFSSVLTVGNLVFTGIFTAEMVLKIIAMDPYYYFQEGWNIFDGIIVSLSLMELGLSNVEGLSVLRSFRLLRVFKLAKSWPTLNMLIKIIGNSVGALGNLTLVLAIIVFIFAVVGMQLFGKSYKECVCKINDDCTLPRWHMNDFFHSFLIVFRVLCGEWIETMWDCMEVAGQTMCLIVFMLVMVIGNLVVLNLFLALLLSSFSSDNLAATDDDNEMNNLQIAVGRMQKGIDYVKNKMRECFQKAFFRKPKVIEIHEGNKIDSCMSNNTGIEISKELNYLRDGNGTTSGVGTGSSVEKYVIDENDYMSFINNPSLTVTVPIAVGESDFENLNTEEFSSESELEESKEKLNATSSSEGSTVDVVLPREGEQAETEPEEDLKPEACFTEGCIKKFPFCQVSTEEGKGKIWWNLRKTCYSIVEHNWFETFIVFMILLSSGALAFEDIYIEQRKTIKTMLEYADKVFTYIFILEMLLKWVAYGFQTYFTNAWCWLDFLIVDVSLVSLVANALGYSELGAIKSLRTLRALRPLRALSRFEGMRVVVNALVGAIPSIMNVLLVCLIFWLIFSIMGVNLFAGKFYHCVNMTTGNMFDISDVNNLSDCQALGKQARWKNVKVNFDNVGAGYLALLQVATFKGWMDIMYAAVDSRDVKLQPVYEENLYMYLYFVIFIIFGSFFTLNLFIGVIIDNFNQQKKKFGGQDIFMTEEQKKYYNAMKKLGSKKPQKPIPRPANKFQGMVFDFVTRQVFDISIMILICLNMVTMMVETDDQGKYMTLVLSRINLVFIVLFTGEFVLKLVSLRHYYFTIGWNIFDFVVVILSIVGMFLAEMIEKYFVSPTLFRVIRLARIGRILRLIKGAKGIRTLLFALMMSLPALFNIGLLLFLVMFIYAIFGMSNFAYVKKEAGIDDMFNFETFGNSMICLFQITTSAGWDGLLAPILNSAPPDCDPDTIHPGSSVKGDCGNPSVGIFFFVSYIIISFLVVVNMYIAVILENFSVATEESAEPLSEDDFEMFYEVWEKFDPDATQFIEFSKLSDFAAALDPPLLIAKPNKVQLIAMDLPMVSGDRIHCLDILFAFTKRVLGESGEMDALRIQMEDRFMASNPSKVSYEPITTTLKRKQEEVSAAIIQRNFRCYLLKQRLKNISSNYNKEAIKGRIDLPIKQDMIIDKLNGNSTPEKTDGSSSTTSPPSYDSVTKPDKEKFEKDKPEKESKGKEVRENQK

Work on CC[C@H](C)[C@@H]1NC(=O)[C@@H]2CSSC[C@@H]3NC(=O)[C@H](C(C)C)NC(=O)[C@H](CC(C)C)NC(=O)[C@H](CC(N)=O)NC(=O)[C@@H]4CCCN4C(=O)[C@H](CCCNC(=N)N)NC(=O)[C@H](CSSC[C@H](NC(=O)[C@@H](N)CC(=O)O)C(=O)N[C@@H](CC(C)C)C(=O)NCC(=O)N[C@@H](CC(C)C)C(=O)N[C@@H](Cc4ccccc4)C(=O)N[C@@H](CCCNC(=N)N)C(=O)N[C@@H](CCCCN)C(=O)N2)NC(=O)[C@H](CSSC[C@@H](C(=O)N[C@@H](CCCCN)C(=O)N[C@@H](Cc2ccc(O)cc2)C(=O)N[C@H](C(=O)N[C@@H](Cc2ccccc2)C(N)=O)C(C)C)NC(=O)[C@H](Cc2c[nH]c4ccccc24)NC(=O)[C@H](CCCCN)NC(=O)[C@H](Cc2c[nH]cn2)NC(=O)[C@H]([C@@H](C)O)NC(=O)[C@H](CCCNC(=N)N)NC(=O)[C@H](CO)NC3=O)NC(=O)[C@H](CCCCN)NC(=O)[C@H](CC(=O)O)NC(=O)[C@H](CC(N)=O)NC(=O)[C@H](CC(=O)O)NC(=O)[C@@H]2CCCN2C1=O [compound 612] (H-DCLGLFRKCIPDNDKCCRPNLVCSRTHKWCKYVF-NH2; disulfide 2-17, 9-23, 16-30) yielded an IC50 [1, 4] of 0.057 µM, an IC50 ([2]; use-dependent block, hNav1.3) of 0.22 µM and an IC50 [3, 5] of 20.1 µM.

In the case of CC[C@H](C)[C@@H]1NC(=O)[C@@H]2CSSC[C@@H]3NC(=O)[C@H](C(C)C)NC(=O)[C@H](CC(C)C)NC(=O)[C@H](CC(N)=O)NC(=O)[C@@H]4CCCN4C(=O)[C@H](CCCNC(=N)N)NC(=O)[C@H](CSSC[C@H](NC(=O)[C@@H](N)CC(=O)O)C(=O)N[C@@H](CC(C)C)C(=O)NCC(=O)N[C@@H](Cc4cccs4)C(=O)N[C@@H](CC(C)C)C(=O)N[C@@H](CCCNC(=N)N)C(=O)N[C@@H](CCCCN)C(=O)N2)NC(=O)[C@H](CSSC[C@@H](C(=O)N[C@@H](CCCCN)C(=O)N[C@@H](Cc2ccc(O)cc2)C(=O)N[C@H](C(=O)N[C@@H](Cc2ccccc2)C(N)=O)C(C)C)NC(=O)[C@H](Cc2c[nH]c4ccccc24)NC(=O)[C@H](CCCCN)NC(=O)[C@H](Cc2c[nH]cn2)NC(=O)[C@H]([C@@H](C)O)NC(=O)[C@H](CCCNC(=N)N)NC(=O)[C@H](CO)NC3=O)NC(=O)[C@H](CCCCN)NC(=O)[C@H](CC(=O)O)NC(=O)[C@H](CC(N)=O)NC(=O)[C@H](CC(=O)O)NC(=O)[C@@H]2CCCN2C1=O [compound 662], the IC50 [1, 6] is reported as 0.022 µM, the IC50 [2, 7] is reported as 0.068 µM and the IC50 [3, 8] is reported as > 5 µM.

With CC[C@H](C)[C@@H]1NC(=O)[C@@H]2CSSC[C@@H]3NC(=O)[C@H](C(C)C)NC(=O)[C@H](CC(C)C)NC(=O)[C@H](CC(N)=O)NC(=O)[C@@H]4CCCN4C(=O)[C@H](CCCNC(=N)N)NC(=O)[C@H](CSSC[C@H](NC(=O)[C@@H](N)CC(=O)O)C(=O)N[C@@H](CC(C)C)C(=O)NCC(=O)N[C@@H](C)C(=O)N[C@@H](Cc4ccccc4)C(=O)N[C@@H](CCCNC(=N)N)C(=O)N[C@@H](CCCCN)C(=O)N2)NC(=O)[C@H](CSSC[C@@H](C(=O)N[C@@H](CCCCN)C(=O)N[C@@H](Cc2ccc(O)cc2)C(=O)N[C@H](C(=O)N[C@@H](Cc2ccccc2)C(=O)O)C(C)C)NC(=O)[C@H](Cc2c[nH]c4ccccc24)NC(=O)[C@H](CC(C)C)NC(=O)[C@H](Cc2c[nH]cn2)NC(=O)[C@H]([C@@H](C)O)NC(=O)[C@H](CCCNC(=N)N)NC(=O)[C@H](CO)NC3=O)NC(=O)[C@H](CCCCN)NC(=O)[C@H](CC(=O)O)NC(=O)[C@H](CC(N)=O)NC(=O)[C@H](CC(=O)O)NC(=O)[C@@H]2CCCN2C1=O [compound 830] (H-DCLGAFRKCIPDNDKCCRPNLVCSRTHLWCKYVF-OH; disulfide 2-17, 9-23, 16-30) the IC50 [1, 4] was > 5 µM, the IC50 ([2]; use-dependent block, hNav1.3) was > 5 µM and the IC50 [3, 5] was > 5 µM.

With CC[C@H](C)[C@@H]1NC(=O)[C@@H]2CSSC[C@@H]3NC(=O)[C@H](C(C)C)NC(=O)[C@H](CC(C)C)NC(=O)[C@H](CC(N)=O)NC(=O)[C@@H]4CCCN4C(=O)[C@H](CCCNC(=N)N)NC(=O)[C@H](CSSC[C@H](NC(=O)[C@@H](N)CC(=O)O)C(=O)N[C@@H](CC(C)C)C(=O)NCC(=O)N[C@@H](Cc4ccccc4Cl)C(=O)N[C@@H](Cc4ccccc4)C(=O)N[C@@H](CCCNC(=N)N)C(=O)N[C@@H](CCCCN)C(=O)N2)NC(=O)[C@H](CSSC[C@@H](C(=O)N[C@@H](CCCCN)C(=O)N[C@@H](Cc2ccc(O)cc2)C(=O)N[C@H](C(=O)N[C@@H](Cc2ccccc2)C(N)=O)C(C)C)NC(=O)[C@H](Cc2c[nH]c4ccccc24)NC(=O)[C@H](CCCCN)NC(=O)[C@H](Cc2c[nH]cn2)NC(=O)[C@H]([C@@H](C)O)NC(=O)[C@H](CCCNC(=N)N)NC(=O)[C@H](CO)NC3=O)NC(=O)[C@H](CCCCN)NC(=O)[C@H](CC(=O)O)NC(=O)[C@H](CC(N)=O)NC(=O)[C@H](CC(=O)O)NC(=O)[C@@H]2CCCN2C1=O [compound 630] (H-DCLG[Phe(2-Cl)]FRKCIPDNDKCCRPNLVCSRTHKWCKYVF-NH2; disulfide 2-17, 9-23, 16-30) the IC50 [1, 6] was 0.06 µM, the IC50 [2, 7] was 0.009 µM and the IC50 [3, 8] was 5.8 µM.

For CC[C@H](C)[C@@H]1NC(=O)[C@@H]2CSSC[C@@H]3NC(=O)[C@H](C(C)C)NC(=O)[C@H](CC(C)C)NC(=O)[C@H](CC(N)=O)NC(=O)[C@@H]4CCCN4C(=O)[C@H](CCCNC(=N)N)NC(=O)[C@H](CSSC[C@H](NC(=O)[C@@H](N)CC(=O)O)C(=O)N[C@@H](CC(C)C)C(=O)NCC(=O)N[C@@H](C)C(=O)N[C@@H](Cc4ccccc4)C(=O)N[C@@H](CCCNC(=N)N)C(=O)N[C@@H](CCCCN)C(=O)N2)NC(=O)[C@H](CSSC[C@@H](C(=O)N[C@@H](CCCCN)C(=O)N[C@@H](Cc2ccc(O)cc2)C(=O)N[C@H](C(=O)N[C@@H](Cc2ccccc2)C(=O)O)C(C)C)NC(=O)[C@H](Cc2c[nH]c4ccccc24)NC(=O)[C@H](CCC(N)=O)NC(=O)[C@H](Cc2c[nH]cn2)NC(=O)[C@H]([C@@H](C)O)NC(=O)[C@H](CCCNC(=N)N)NC(=O)[C@H](CO)NC3=O)NC(=O)[C@H](CCCCN)NC(=O)[C@H](CC(=O)O)NC(=O)[C@H](CC(N)=O)NC(=O)[C@H](CC(=O)O)NC(=O)[C@@H]2CCCN2C1=O [compound 834] (H-DCLGAFRKCIPDNDKCCRPNLVCSRTHQWCKYVF-OH; disulfide 2-17, 9-23, 16-30), the IC50 [1, 4] was > 5 µM, the IC50 ([2]; use-dependent block, hNav1.3) was 3.9 µM and the IC50 [3, 5] was > 5 µM.

For CC[C@H](C)[C@@H]1NC(=O)[C@@H]2CSSC[C@@H]3NC(=O)[C@H](C(C)C)NC(=O)[C@H](CC(C)C)NC(=O)[C@H](CC(N)=O)NC(=O)[C@@H]4CCCN4C(=O)[C@H](CCCNC(=N)N)NC(=O)[C@H](CSSC[C@H](NC(=O)[C@@H](N)CC(=O)O)C(=O)N[C@@H](CC(C)C)C(=O)NCC(=O)N[C@@H](Cc4ccccc4)C(=O)N[C@@H](CCSC)C(=O)N[C@@H](CCCNC(=N)N)C(=O)N[C@@H](CCCCN)C(=O)N2)NC(=O)[C@H](CSSC[C@@H](C(=O)N[C@@H](CCCCN)C(=O)N[C@@H](Cc2ccc(O)cc2)C(=O)N[C@H](C(=O)N[C@@H](Cc2ccccc2)C(=O)N[C@@H](Cc2c[nH]c4ccccc24)C(N)=O)C(C)C)NC(=O)[C@H](Cc2c[nH]c4ccccc24)NC(=O)[C@H](CCCCN)NC(=O)[C@H](Cc2c[nH]cn2)NC(=O)[C@H]([C@@H](C)O)NC(=O)[C@H](CCCNC(=N)N)NC(=O)[C@H](CO)NC3=O)NC(=O)[C@H](CCCCN)NC(=O)[C@H](CC(=O)O)NC(=O)[C@H](CC(N)=O)NC(=O)[C@H](CC(=O)O)NC(=O)[C@@H]2CCCN2C1=O [compound 87], the IC50 ([1]; use-dependent, […], read-out: IWQ Use Nav1.7 (μm)) was 0.05 µM, the IC50 ([2]; use-dependent, […]) was 0.07 µM and the IC50 ([3]; IonWorks Quattro, use-dependent, […], read-out: IWQ Use Nav1.5) was 7.87 µM.

CC[C@H](C)[C@@H]1NC(=O)[C@@H]2CSSC[C@@H]3NC(=O)[C@H](C(C)C)NC(=O)[C@H](CC(C)C)NC(=O)[C@H](CC(N)=O)NC(=O)[C@@H]4CCCN4C(=O)[C@H](CCCNC(=N)N)NC(=O)[C@H](CSSC[C@H](NC(=O)[C@@H](N)CC(=O)O)C(=O)N[C@@H](CC(C)C)C(=O)NCC(=O)N[C@@H](Cc4ccccc4)C(=O)N[C@@H](CCSC)C(=O)N[C@@H](CCCNC(=N)N)C(=O)N[C@@H](CCCCN)C(=O)N2)NC(=O)[C@H](CSSC[C@@H](C(=O)N[C@@H](CCCCN)C(=O)N[C@@H](Cc2ccc(O)cc2)C(=O)N[C@H](C(=O)N[C@@H](Cc2ccccc2)C(N)=O)C(C)C)NC(=O)[C@H](Cc2c[nH]c4ccccc24)NC(=O)[C@H](CCCNC(=N)N)NC(=O)[C@H](Cc2cnc[nH]2)NC(=O)[C@H]([C@@H](C)O)NC(=O)[C@H](CCCNC(=N)N)NC(=O)[C@H](CO)NC3=O)NC(=O)[C@H](CCCCN)NC(=O)[C@H](CC(=O)O)NC(=O)[C@H](CC(N)=O)NC(=O)[C@H](CC(=O)O)NC(=O)[C@@H]2CCCN2C1=O [SEQ ID NO: 72, [Arg28]GpTx-1] showed an IC50 ([1]; Table 23, use, […], read-out: IWQ Use Nav1.7) of 0.08 µM, an IC50 ([2]; Table 23, use, […]) of 0.13 µM and an IC50 ([3]; IWQ Use Nav1.5 (μM)) of 8.95 µM.

CC[C@H](C)[C@@H]1NC(=O)[C@@H]2CSSC[C@@H]3NC(=O)[C@H](C(C)C)NC(=O)[C@H](CC(C)C)NC(=O)[C@H](CC(N)=O)NC(=O)[C@@H]4CCCN4C(=O)[C@H](CCCNC(=N)N)NC(=O)[C@H](CSSC[C@H](NC(=O)[C@@H](N)CC(=O)O)C(=O)N[C@@H](CC(C)C)C(=O)NCC(=O)N[C@@H](C)C(=O)N[C@@H](CC(C)C)C(=O)N[C@@H](CCCNC(=N)N)C(=O)N[C@@H](CCCCN)C(=O)N2)NC(=O)[C@H](CSSC[C@@H](C(=O)N[C@@H](CCCCN)C(=O)N[C@@H](Cc2ccc(O)cc2)C(=O)N[C@H](C(=O)N[C@@H](Cc2ccccc2)C(N)=O)C(C)C)NC(=O)[C@H](Cc2c[nH]c4ccccc24)NC(=O)[C@H](CCC(=O)O)NC(=O)[C@H](Cc2c[nH]cn2)NC(=O)[C@H]([C@@H](C)O)NC(=O)[C@H](CCCNC(=N)N)NC(=O)[C@H](CO)NC3=O)NC(=O)[C@H](CCCCN)NC(=O)[C@H](CC(=O)O)NC(=O)[C@H](CC(N)=O)NC(=O)[C@H](CC(=O)O)NC(=O)[C@@H]2CCCN2C1=O [compound 728] was tested, and the IC50 [1, 4] was 1.6 µM, the IC50 ([2]; use-dependent block, hNav1.3) was 6.6 µM and the IC50 [3, 5] was 43 µM.
